Where “and” joins values, the source holds several entries; their conditions need not be identical. Identical values can stand only once.
Columns and labels:
[1] = tested on: male germ cells of the testis; experiment: Depopulating the recipient testis of male germ cells, histologic analysis; assay type: in vivo, C57BL/6J mice; conditions: two months after treatment
Description: Comparison of Depopulating Treatments. Eight-week-old C57BL/6J mice were allowed to acclimatize for a few days and then were assigned to one of the following three treatment groups. They received: (1) 400 Rad gamma irradiation; (2)4 μg/g body weight of busulfan (1,4-butanediol dimethanesulphonate; Myleran, Glaxo Wellcome); or (3) a combination treatment of busulfan (4 μg/g body wt) followed one week later by 400 Rad of gamma irradiation (“busulfan/400 Rad” treatment). A fourth group of untreated C57BL/6J mice of the same age as the treatment groups was used as a control. There were 24 mice in each treatment group, and 3 mice were sacrificed at each of the following time intervals after treatment: 5 hours, 24 hours, 48 hours, 72 hours, 1 week, 2 weeks, I month and 2 months after treatment. […]
Delivery of an Alkylating Agent to Recipient Vertebrates. The male mice receiving busulfan received a dose of 4 μg busulfan per g body wt. The busulfan was first dissolved 8 mg/mL in 100% dimethyl sulfoxide (DMSO) then, immediately before injection, was diluted 1:1 in phosphate buffered saline, pH 7.4. The mice were injected with the diluted busulfan solution intraperitoneally. Irradiation Treatment of Recipient Vertebrates. For the gamma irradiation treatment, mice were anesthetized with 0.017 mL/g body wt. of 2.5% Avertin. Gamma irradiation was specifically directed to the testis in the following manner. Each mouse was placed in a lead chamber with only the testis and lower abdomen exposed through elliptical holes to the irradiating source (^137Cs Gammacell 40 irradiator [Nordion]). There were six aligned holes in the floor and roof of the chamber through which the gamma radiation passed unobstructed. After irradiation the animals were allowed to recover from the anesthesia on a warm heating pad or water bed until they regained consciousness. Histology. At selected time points, mice from each treatment group were euthanized, and testicular tissues to be examined were fixed in 10% formalin in PBS, pH 7.4, at 4° C. for 24 hours. Small slits in the testis capsule were made to allow penetration of the fixative. Fixed samples were washed four times with PBS, and embedded in paraffin using a Tissue Tek-II tissue processor (MET). Sections of 8 μm thickness were cut, stained with haemotoxylin and eosin (H&E), and mounted with Aquamount (Lerner Laboratories) on glass slides with coverslips. The sections were viewed on a Zeiss or Olympic light microscope with a 40× objective lens (total magnification 400×). Quantitative Histologic Analysis. Quantitative data were collected from the testes of two animals for each of the treatment groups at two months after treatment. (Table 2). For the control group only one mouse was used. The seminiferous tubules in a single section were counted using a 5× objective on a Zeiss light microscope (50× total magnification). Individual seminiferous tubules were examined at 400× total magnification. Seminiferous tubules were considered severely damaged if hardly any cells remained in the tubule, and the tubule consisted of a basement membrane with a single layer of cells, mostly spermatogonia, lying along the basement membrane. Moderately damaged tubules were tubules, in which some of the spermatogenic layers close to the lumen were partially sloughed off. Spermatozoan heads were counted in the tubules and averaged over the total number of tubules counted. Results of Histological Analysis. Obvious histological changes were not seen in the testis until two weeks after treatment. (Data no shown). […] A few Sertoli cell nuclei and spermatogonia were detectable in the periphery along the basement membrane. […] Some spermatids and spermatozoa were seen as well as a few spermatocytes.

[2] = tested on: testis germ cells; experiment: Busulfan depopulation of testis before microinjection (Example 15); assay type: in vivo, mice; conditions: IP 4 μg/g body wt.
Description: The method of delivery (Winston, R. M. L., Microsurgical reanastomosis of the rabbit oviduct and its functional and pathological sequelae, Brit. J. Obstet. Gynaecol. 82:513-522 ([1975]) of viral particles into a single vas efferens, and thence to the seminiferous tubules, was first optimized in several mice (FIGS. 1a-1d). The mice were treated with busulfan (Myleran: Glaxo Wellcome) 14 days before microsurgery to maximize the chance of viral particles gaining access to spermatogonia, which lie on the basement lamella of the tubules. Busulfan, an alkylating cytotoxic agent, depopulates the testis (Bucci, L. and Meistrich, M., Effects of busulfan on murine spermatogenesis: cytotoxicity, sterility, sperm abnormalities, and dominant lethal mutations, Mut. Res. 176:259-268 [1987]). […] This implies that stem cells remain viable and can repopulate the testis. Stem cell spermatogonia are known to be resistant to insults, often surviving when other germ cell types are destroyed (Huckins, C. & Oakberg, W. F., Morphological and quantitative analysis of spermatogonia in mouse testes using whole mounted seminiferous tubules. II. The irradiated testes, Anat. Rec. 192:529-42 [1978]).

[3] = tested on: male germ cells; experiment: In vivo transduction of male germ cells followed by natural matings, transgenic progeny by PCR and Southern blot; parameters: species or system C57/B1/6J mice; conditions: IP 4 μg/gm body wt before in vivo transduction
[4] = tested on: male germ cells in the testis; conditions: mice, cited from earlier work
[5] = tested on: testicular cells within the seminiferous tubules; experiment: In vivo transduction of male germ cells using a viral vector (Example 14); parameters: species or system C57BL/6J mice; conditions: 4 μg/gm body wt IP, 44 days prior to viral infection
Excerpt: A retroviral vector was used to transduce (genetically alter or modify) male germ cells of mice in vivo. Specifically, a pseudo-typed HIV-derived viral vector (L. Naldini et al., In vivo gene delivery and stable transduction of nondividing cells by a Lentiviral vector, Science 272:263-67 [1996]), was used, as modified by Carlos Lois to express Green Flourescent Protein (GFP) instead of the LacZ reporter gene, under the transcriptional control of the CMV promoter (HR′GFP).
Recipient C57BL/6J mice were treated with busulfan 44 days prior to viral infection. C57BL/6J male mice were injected intraperitoneally with 0.1 ml busulfan at a concentration of 1 mg/ml. The dose was 4 μg busulfan/gm body wt. One pretreated mouse was anesthetized with Avertin (0.017 mls/gm body wt.), and a ventral midline incision was made and the right testis exposed.
The vas efferentia were dissected away from the fat, and ten microlitres of HIV-derived GFP vector, HR′GFP, at a titer of 1×10^9 particles/ml were injected into the seminiferous tubules of the right testis via the vas efferens of a busulfan-treated C57 BL/6J mouse. Injection was done with a quartz glass micropipette attached to a Picospritzer II. The Picospritzer was set at 80 psi and gave 1 second bursts upon manual depression of a foot pedal. […]

Structure (SMILES): CS(=O)(=O)OCCCCOS(C)(=O)=O [Busulfan, 1,4-butanediol dimethanesulphonate]
- Total No. Sperm heads ([1]; in 50 tubules): 957 and 764
- Average No. sperm heads/tubule [1]: 19 and 15
- depopulation of seminiferous tubules, comparison of treatment groups [1]: damage to the spermatogenic process
- Moderately damaged tubules, percent of tubules counted ([1]; one animal per line): 7% and 3%
- No. Moderately damaged (seminiferous tubules) ([1]; one animal per line): 5 and 2
- No. Severely damaged (seminiferous tubules) ([1]; one animal per line): 1 (1%) and 3
- Severely damaged tubules, percent of tubules counted ([1]; one animal per line): 1 (1%) and 10%
- elimination of germ cells from the tubules [2]: many of the spermatocytes, spermatids and spermatozoa were eliminated from the tubules
- recovery of testis and fertility [2]: the testis recovered three to four months afterward and fertility was restored
- effect of pre-treatment on transduction of spermatogonia [3]: enhanced the transduction of spermatogonia
- depletion of male germ cells ([4]; 13 mg-40 mg/kg body wt.): deplete male germs cells in the testis
- duration of azoospermia after treatment ([4]; doses over 30 mg/kg body weight): up to 56 days
- mature spermatozoa in testis [5]: Very few mature spermatozoa were present

Source: US7294755B1 (priority 1997, dated 2007)
